Assay results reported in patent US20170327471A1, “Aryl sulphide and aryl sulphoxide derivatives having C-C-attached uracils as pesticides” (BAYER CROPSCIENCE AKTIENGESELLSCHAFT, priority 2014, published 2017).
Like-named read-outs stand apart in the source and are kept apart here.

Tests used:
[1] = logP by reversed-phase HPLC (EEC Directive 79/831 Annex V.A8); assay type: physicochemical; conditions: reversed-phase C18 HPLC column
Method: The logP values were determined in accordance with EEC Directive 79/831 Annex V.A8 by HPLC (High Performance Liquid Chromatography) using reversed-phase columns (C 18) by the following methods:
^[a] The LC-MS determination in the acidic range was effected at pH 2.7 with 0.1% aqueous formic acid and acetonitrile (contains 0.1% formic acid) as eluents; linear gradient from 10% acetonitrile to 95% acetonitrile. Called logP (HCOOH) in the table.
^[b] LC-MS determination in the neutral range was effected at pH 7.8 with 0.001 molar aqueous ammonium hydrogencarbonate solution and acetonitrile as eluents; linear gradient from 10% acetonitrile to 95% acetonitrile. Called logP (neutral) in the table.
Calibration was effected with unbranched alkan-2-ones (having 3 to 16 carbon atoms) with known logP values (logP values determined on the basis of the retention times by linear interpolation between two successive alkanones).

Boophilus microplus = Boophilus microplus injection test; assay type: in vivo; conditions: application rate, injection into engorged adult female cattle ticks, after 7 days
Method: 1. Boophilus microplus—Injection Test Solvent: dimethyl sulphoxide
To produce a suitable preparation of active compound, 10 mg of active compound are mixed with 0.5 ml of solvent and the concentrate is diluted with solvent to the desired concentration.
1 μl of the active compound solution is injected into the abdomen of 5 engorged adult female cattle ticks (Boophilus microplus). The animals are transferred into dishes and kept in a climate-controlled room.
Efficacy is assessed after 7 days by laying of fertile eggs. Eggs which are not visibly fertile are stored in a climate-controlled cabinet until the larvae hatch after about 42 days. An efficacy of 100% means that none of the ticks has laid any fertile eggs; 0% means that all the eggs are fertile.

Meloidogyne incognita [2] = assay: Meloidogyne incognita test (sand, lettuce, solvent acetone); assay type: in vivo; conditions: application rate 20 ppm, after 14 days, lettuce in sand
Method: 2. Meloidogyne incognita Test Solvent: 125.0 parts by weight of acetone To produce a suitable preparation of active compound, 1 part by weight of active compound is mixed with the stated amount of solvent and the concentrate is diluted with water to the desired concentration. Vessels are filled with sand, active compound solution, an egg/larvae suspension of the southern root-knot nematode (Meloidogyne incognita) and lettuce seeds. The lettuce seeds germinate and the plants develop. The galls develop on the roots. After 14 days, the nematicidal efficacy in % is determined by the formation of galls. 100% means that no galls were found; 0% means that the number of galls on the treated plants corresponds to the untreated control.

Tetranychus urticae [3] = assay: Tetranychus urticae spray test, OP-resistant (bean leaf discs); assay type: in vivo; conditions: application rate 500 g/ha, after 6 days
Method: 4. Tetranychus urticae—Spray Test, OP-Resistant Solvent: 78.0 parts by weight of acetone • • 1.5 parts by weight of dimethylformamide Emulsifier: alkylaryl polyglycol ether
(§1) To produce a suitable preparation of active compound, 1 part by weight of active compound is dissolved using the stated parts by weight of solvent and made up with water containing an emulsifier concentration of 1000 ppm until the desired concentration is attained. To produce further test concentrations, the preparation is diluted with emulsifier-containing water.
Discs of bean leaves (Phaseolus vulgaris) infested with all stages of the greenhouse red spider mite (Tetranychus urticae) are sprayed with an active compound preparation of the desired concentration.
After 6 days, the efficacy in % is determined. 100% means that all the spider mites have been killed; 0% means that none of the spider mites have been killed.

Tetranychus urticae [4] = assay: Tetranychus urticae spray test, OP-resistant (bean plants); assay type: in vivo; conditions: application rate 20 ppm, after 7 days
Method: 5. Tetranychus urticae-Spray Test, OP-Resistant Solvent: 7 parts by weight of dimethylformamide Emulsifier: alkylaryl polyglycol ether
as §1, with “water. If the addition of ammonium salts or/and penetrants is required, these are each added in a concentration of 1000 ppm to the preparation solution.” for “water.”
Bean plants (Phaseolus vulgaris) heavily infested by all stages of the greenhouse red spider mite (Tetranychus urticae) are sprayed with an active compound preparation of the desired concentration.
After 7 days, the efficacy in % is determined. 100% means that all the spider mites have been killed; 0% means that none of the spider mites have been killed.

Tetranychus urticae [5] = assay: Tetranychus urticae drench test, OP-resistant; assay type: in vivo; conditions: application rate 4 ppm, after 14 days, bean plants in soil
Method: 6. Tetranychus urticae—Drench Test, OP-Resistant Solvent: 7 parts by weight of dimethylformamide Emulsifier: 2 parts by weight of alkylaryl polyglycol ether
To produce a suitable preparation of active compound, 1 part by weight of active compound is mixed with the stated amounts of solvent and emulsifier, and the concentrate is diluted with water to the desired concentration, where the volume of soil to be drenched has to be taken into account. Here, it has to be made sure that a concentration of 40 ppm of emulsifier in the soil is not exceeded. To produce further test concentrations, the mixture is diluted with water.
Bean plants (Phaseolus vulgaris) in pots filled with soil, which plants are heavily infested by all stages of the greenhouse red spider mite (Tetranychus urticae), are watered with an active compound preparation of the desired concentration.
After 14 days, the efficacy in % is assessed. 100% means that all spider mites have been killed; 0% means that none of the spider mites have been killed.

Meloidogyne incognita [6] = assay: Meloidogyne incognita test (soil drench, lettuce); assay type: in vivo; conditions: application rate 8 ppm, after 21 days, lettuce in soil (loamy sand)
Method: 7. Meloidogyne incognita—Test Solvent: 7 parts by weight of dimethylformamide Emulsifier: 2.5 parts by weight of alkylaryl polyglycol ether To produce a suitable preparation of active compound, 1 part by weight of active compound is mixed with the stated amounts of solvent and emulsifier, and the concentrate is diluted with water to the desired concentration, where the volume of soil to be drenched has to be taken into account. Here, it has to be made sure that a concentration of 20 ppm of emulsifier in the soil is not exceeded. To produce further test concentrations, the mixture is diluted with water. Pots filled with soil (loamy sand) are watered with the active compound solution. An egg/larvae suspension of the southern root-knot nematode (Meloidogyne incognita) is added, lettuce seeds are scattered on the surface of the soil and covered with quartz sand. The lettuce seeds germinate and the plants develop. The galls develop on the roots. After 21 days, the nematicidal efficacy in % is determined by the formation of galls. 100% means that no galls were found; 0% means that the number of galls on the treated plants corresponds to that of the untreated control.

Panonychus ulmi = Panonychus ulmi spray test; assay type: in vivo; conditions: application rate 20 ppm, after 14 days, plum trees
Method: 8. Panonychus ulmi—Spray Test Solvent: 7 parts by weight of dimethylformamide Emulsifier: alkylaryl polyglycol ether To produce a suitable preparation of active compound, 1 part by weight of active compound is dissolved in the parts by weight of solvent stated and filled with water containing an emulsifier concentration of 1000 ppm until the desired concentration is reached. To prepare further test concentrations, the mixture is diluted with emulsifier-containing water. If the addition of ammonium salts and/or penetrants (rapeseed oil methyl ester) is required, these are, after dilution of the finished preparation solution, added using a pipette, at a concentration of in each case 1000 ppm. Plum trees (Prunus domestica), infested by a mixed population of the European red mite (Panonychus ulmi) are treated by spraying with the active compound preparation of the desired concentration. After 14 days, the kill in % is determined. 100% means that all spider mites have been killed; 0% means that none of the spider mites have been killed.

## Cc1cc(F)c(-c2cc(=O)n(C)c(=O)n2C)cc1[S+]([O-])CC(F)(F)F (stereo not drawn) [Example I-1, 6-{2-Fluoro-4-methyl-5-[(2,2,2-trifluoroethyl)sulphinyl]phenyl}-1,3-dimethylpyrimidine-2,4(1H,3H)-dione]
[1]; acidic range, pH 2.7, 0.1% aqueous formic acid/acetonitrile, read-out: logP (HCOOH) = logP[a]
  chromatographic logP: 1.77
[1]; neutral range, pH 7.8, 0.001 molar aqueous ammonium hydrogencarbonate/acetonitrile, read-out: logP (neutral) = logP[b]
  chromatographic logP: 1.75
Boophilus microplus
  efficacy (no fertile eggs laid): 100%
Meloidogyne incognita [2]
  nematicidal efficacy (formation of galls): 100%
Tetranychus urticae [3]
  efficacy (spider mites killed): 100%
Tetranychus urticae [4]
  efficacy (spider mites killed): 100%
Tetranychus urticae [5]
  efficacy (spider mites killed): 100%
Meloidogyne incognita [6]
  nematicidal efficacy (formation of galls): 90%
Panonychus ulmi
  efficacy (kill of spider mites): 100%
